Earlier results, collected in patent US7767208B2, “Noninvasive vascular therapy” (Light Sciences Oncology, Inc., priority 1999, dated 2010).

Details: systemically administered sensitizer in clinical use; for sensitize the skin for: duration of skin sensitization

sodium porfimer [Photophrin]
photosensitivity lasting (skin photosensitivity): up to 6 weeks

CCOC(=O)C1=Cc2c3nc(cc4nc(cc5[n-]c(cc6[n-]c2c(C)c6CC)c(C)c5CC)C(C)=C4CC)[C@@H](C)[C@]13CC.[Cl-].[Cl-].[Sn] (racemic) [Purlytin]
sensitize the skin for: several weeks

Oc1cccc(-c2c3nc(c(-c4cccc(O)c4)c4ccc([nH]4)c(-c4cccc(O)c4)c4nc(c(-c5cccc(O)c5)c5ccc2[nH]5)CC4)C=C3)c1 [Foscan]
sensitize the skin for: several weeks
